Test results reported in ChEMBL document CHEMBL3879915, “Methods of inhibiting PRMT5” (2014).

Columns and labels:
[1] = molecular target: PRMT5/MEP50 complex (Homo sapiens, UniProt O14744); experiment: Inhibition of recombinant human fetal brain FLAG-tagged PRMT5/full length human testis 6His-tagged MEP50 expressed in baculovirus infected insect Sf9 cells using human histone H4 (1 to 15 residues) as substrate preincubated for 30 mins followed by [3H]-SAM addition
[2] = molecular target: Protein arginine N-methyltransferase 5 (Homo sapiens, UniProt O14744); experiment: Inhibition of PRMT5 in human Z138 cells assessed as decrease in di-methyl arginine levels after 96 hrs by Western blot method; format: cell-based
[3] = Antiproliferative activity against human Z138 cells assessed as inhibition of cell viability after 5 days by Cell-Titer Glo assay; format: functional, cell-based; conditions: Z-138, 120 h

Sequence of Protein arginine N-methyltransferase 5 (O14744 whole entry): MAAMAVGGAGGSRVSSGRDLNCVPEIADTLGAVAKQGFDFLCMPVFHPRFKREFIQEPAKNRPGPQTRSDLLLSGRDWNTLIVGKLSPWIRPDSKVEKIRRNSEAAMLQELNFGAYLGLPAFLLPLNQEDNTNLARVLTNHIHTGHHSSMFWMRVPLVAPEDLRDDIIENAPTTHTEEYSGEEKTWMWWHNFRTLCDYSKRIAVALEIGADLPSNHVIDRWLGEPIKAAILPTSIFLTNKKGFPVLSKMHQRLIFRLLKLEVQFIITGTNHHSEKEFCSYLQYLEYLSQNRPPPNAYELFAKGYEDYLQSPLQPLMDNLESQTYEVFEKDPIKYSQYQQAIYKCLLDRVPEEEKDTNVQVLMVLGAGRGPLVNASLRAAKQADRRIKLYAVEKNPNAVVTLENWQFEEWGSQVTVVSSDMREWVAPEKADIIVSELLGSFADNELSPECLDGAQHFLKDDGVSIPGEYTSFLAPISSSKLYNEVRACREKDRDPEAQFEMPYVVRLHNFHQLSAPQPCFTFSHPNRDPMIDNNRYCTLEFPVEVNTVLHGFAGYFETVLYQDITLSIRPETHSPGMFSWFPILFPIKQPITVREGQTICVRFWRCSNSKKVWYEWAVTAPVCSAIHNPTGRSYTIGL
Sequence of PRMT5/MEP50 complex (O14744 whole entry, the tested form may be a part): as the sequence (O14744 whole entry) above
Sequence of PRMT5/MEP50 complex (Q9BQA1 whole entry, further chain, the tested form may be a part): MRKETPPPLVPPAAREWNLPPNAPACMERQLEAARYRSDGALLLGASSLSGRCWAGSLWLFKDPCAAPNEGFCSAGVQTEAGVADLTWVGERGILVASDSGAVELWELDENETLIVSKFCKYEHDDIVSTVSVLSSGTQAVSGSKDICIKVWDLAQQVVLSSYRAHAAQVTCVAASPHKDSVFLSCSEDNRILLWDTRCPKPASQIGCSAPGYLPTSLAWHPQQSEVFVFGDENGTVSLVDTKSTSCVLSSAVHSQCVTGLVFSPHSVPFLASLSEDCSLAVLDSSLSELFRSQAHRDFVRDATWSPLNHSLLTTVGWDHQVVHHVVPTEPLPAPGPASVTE

IC50 [1] [nM] | EC50 [2] [nM] | Structure (SMILES) | EC50 [3] [nM]
1000 to 10000 | > 20000 | COC(=O)c1cncc(-c2cccc(OCC(O)CN3CCc4ccccc4C3)c2)c1 (stereo not given) | > 20000
101 to 1000 | 101 to 1000 | Cn1ncc2cnc(-c3cccc(OCC(O)CN4CCc5ccccc5C4)c3)cc21 (stereo not given) | 10000 to 40000
< 100 | 101 to 1000 | OC(COc1cccc(-c2ccc3ncn(C4CCNCC4)c3c2)c1)CN1CCc2ccccc2C1 (stereo not given) | 1000 to 10000
< 100 | 101 to 1000 | CN1CCC(n2cnc3ccc(-c4cccc(OCC(O)CN5CCc6ccccc6C5)c4)cc32)C1 (stereo not given) | 1000 to 10000
101 to 1000 | 101 to 1000 | O=C(Cn1cnc2ccc(-c3cccc(OCC(O)CN4CCc5ccccc5C4)c3)cc21)N1CCCCC1 (stereo not given) | 10000 to 40000
101 to 1000 | 101 to 1000 | CC(=O)Nc1cccc(-c2cccc(OCC(O)CN3CCc4ccccc4C3)c2)c1 (stereo not given) | > 20000
101 to 1000 | 1000 to 10000 | OC(COc1cccc(-c2ccc3ncn(C4CNC4)c3c2)c1)CN1CCc2ccccc2C1 (stereo not given) | 1000 to 10000
1000 to 10000 | 1000 to 10000 | CNC(=O)c1cncc(-c2cccc(OCC(O)CN3CCc4ccccc4C3)c2)c1 (stereo not given) | > 20000
101 to 1000 | 1000 to 10000 | CNC(=O)Cn1cnc2ccc(-c3cccc(OCC(O)CN4CCc5ccccc5C4)c3)cc21 (stereo not given) | 1000 to 10000
101 to 1000 | 1000 to 10000 | Cn1cnc2ccc(-c3cccc(OC[C@@H](O)CN4CCc5ccccc5C4)c3)cc21 | 1000 to 10000
101 to 1000 | 101 to 1000 | O=C(Cn1cnc2ccc(-c3cccc(OCC(O)CN4CCc5ccccc5C4)c3)cc21)N1CCCC1 (stereo not given) | 10000 to 40000
< 100 | 101 to 1000 | Cn1cnc2ccc(-c3cccc(OC[C@H](O)CN4CCc5ccccc5C4)c3)cc21 | 1000 to 10000
< 100 | 101 to 1000 | CN1CCC(n2cnc3ccc(-c4cccc(OCC(O)CN5CCc6ccccc6C5)c4)cc32)CC1 (stereo not given) | 1000 to 10000
101 to 1000 | 10000 to 40000 | COc1ccc(-c2cccc(OCC(O)CN3CCc4ccccc4C3)c2)cc1Cl (stereo not given) | > 20000
101 to 1000 | 1000 to 10000 | Cc1cn(C)c2cc(-c3cccc(OCC(O)CN4CCc5ccccc5C4)c3)ccc12 (stereo not given) | > 20000
101 to 1000 | 1000 to 10000 | CNC(=O)c1cccc(-c2cccc(OCC(O)CN3CCc4ccccc4C3)c2)c1 (stereo not given) | > 20000
101 to 1000 | 1000 to 10000 | O=C(c1cccc(-c2cccc(OCC(O)CN3CCc4ccccc4C3)c2)c1)N1CCCC1 (stereo not given) | 10000 to 40000
< 100 | 101 to 1000 | OC(COc1cccc(-c2ccc3ncn(C4CCNC4)c3c2)c1)CN1CCc2ccccc2C1 (stereo not given) | 1000 to 10000
101 to 1000 | 1000 to 10000 | NC(=O)c1cccc(-c2cccc(OCC(O)CN3CCc4ccccc4C3)c2)c1 (stereo not given) | > 20000
101 to 1000 | 1000 to 10000 | OC(COc1cccc(-c2ccc3ncoc3c2)c1)CN1CCc2ccccc2C1 (stereo not given) | 10000 to 40000
101 to 1000 | 1000 to 10000 | N#Cc1cccc(-c2cccc(OCC(O)CN3CCc4ccccc4C3)c2)c1 (stereo not given) | > 20000
< 100 | 101 to 1000 | Cn1cnc2ccc(-c3cccc(OCC(O)CN4CCc5ccccc5C4)c3)nc21 (stereo not given) | 101 to 1000
< 100 | 101 to 1000 | CN1CC(n2cnc3ccc(-c4cccc(OCC(O)CN5CCc6ccccc6C5)c4)cc32)C1 (stereo not given) | 1000 to 10000

Further lines, the molecule ahead of its results:

Structure (SMILES) | IC50 [1] [nM] | EC50 [2] [nM] | EC50 [3] [nM]
O=C(Cn1ccc2cnc(-c3cccc(OCC(O)CN4CCc5ccccc5C4)c3)nc21)N1CCOCC1 (stereo not given) | 101 to 1000 | 101 to 1000 | 10000 to 40000
Cn1ccc2ccc(-c3cccc(OCC(O)CN4CCc5ccccc5C4)c3)nc21 (stereo not given) | < 100 | 101 to 1000 | > 20000
Cn1cncc1C(=O)Nc1cccc(OC[C@H](O)CN2CCc3ccccc3C2)c1 | 101 to 1000 | 101 to 1000 | 10000 to 40000
CN1CCN(C(=O)Cn2ccc3cnc(-c4ccnc(NCC(O)CN5CCc6ccccc6C5)c4)nc32)CC1 (stereo not given) | < 100 | < 100 | 1000 to 10000
Cn1cnc(C(=O)Nc2cccc(OCC(O)CN3CCc4ccccc4C3)c2)c1 (stereo not given) | 1000 to 10000 | 1000 to 10000 | > 20000
CN1CCC(n2cnc3ccc(-c4ccnc(NCC(O)CN5CCc6ccccc6C5)c4)cc32)C1 (stereo not given) | < 100 | 101 to 1000 | 1000 to 10000
O[C@H](COc1cccc(-c2cccc3cccnc23)c1)CN1CCc2ccccc2C1 | 101 to 1000 | 1000 to 10000 | > 20000
Cn1cnc2cnc(-c3cccc(OCC(O)CN4CCc5ccccc5C4)c3)nc21 (stereo not given) | 101 to 1000 | 101 to 1000 | 1000 to 10000
Cn1cc2ccc(-c3cccc(NCC(O)CN4CCc5ccccc5C4)c3)nc2n1 (stereo not given) | < 100 | 101 to 1000 | 10000 to 40000
O=C(Cn1ccc2cnc(-c3ccnc(NCC(O)CN4CCc5ccccc5C4)c3)nc21)N1CCCCC1 (stereo not given) | < 100 | < 100 | 101 to 1000
OC(CNc1cccc(-c2cccc3[nH]cnc23)c1)CN1CCc2ccccc2C1 (stereo not given) | 101 to 1000 | 101 to 1000 | 10000 to 40000
Cn1cnc2ccc(-c3cc(NCC(O)CN4CCc5ccccc5C4)ncn3)cc21 (stereo not given) | 101 to 1000 | 101 to 1000 | 1000 to 10000
CN1CCN(C(=O)Cn2ccc3cnc(-c4cccc(OCC(O)CN5CCc6ccccc6C5)c4)nc32)CC1 (stereo not given) | 101 to 1000 | 101 to 1000 | 10000 to 40000
CNC(=O)Cn1ccc2cnc(-c3ccnc(NCC(O)CN4CCc5ccccc5C4)c3)nc21 (stereo not given) | < 100 | 101 to 1000 | 1000 to 10000
O[C@@H](COc1cccc(-c2cccc3cccnc23)c1)CN1CCc2ccccc2C1 | < 100 | 101 to 1000 | 1000 to 10000
Cn1cc2ccc(-c3cccc(OCC(O)CN4CCc5ccccc5C4)c3)nc2n1 (stereo not given) | < 100 | 101 to 1000 | 10000 to 40000
Cn1ncc2ccc(-c3cc(NCC(O)CN4CCc5ccccc5C4)ncn3)cc21 (stereo not given) | 101 to 1000 | 101 to 1000 | > 20000
Cn1cnc2ccc(-c3ccnc(NCC(O)CN4CCc5ccccc5C4)c3)nc21 (stereo not given) | < 100 | < 100 | 1000 to 10000
CC(C)Oc1ccc(F)c(-c2cccc(OCC(O)CN3CCc4ccccc4C3)c2)c1 (stereo not given) | 101 to 1000 | 1000 to 10000 | > 20000
OC(CNc1cc(-c2ccc3ncn(C4CCNC4)c3c2)ccn1)CN1CCc2ccccc2C1 (stereo not given) | < 100 | 101 to 1000 | 1000 to 10000
Cn1ccc2ccc(-c3cc(NCC(O)CN4CCc5ccccc5C4)ncn3)cc21 (stereo not given) | 101 to 1000 | 101 to 1000 | 10000 to 40000

Structure (SMILES) | IC50 [1] [nM] | EC50 [2] [nM] | EC50 [3] [nM]
CC(=O)N1CCC(n2ccc3cnc(-c4ccnc(NCC(O)CN5CCc6ccccc6C5)c4)nc32)CC1 (stereo not given) | < 100 | < 100 | 101 to 1000
OC(COc1cccc(-c2csc3ccccc23)c1)CN1CCc2ccccc2C1 (stereo not given) | 101 to 1000 | 1000 to 10000 | > 20000
Cn1cnc2c1CN(c1cccc(OCC(O)CN3CCc4ccccc4C3)c1)CC2 (stereo not given) | 101 to 1000 | 1000 to 10000 | > 20000
Cn1cc2ccc(-c3ccnc(NCC(O)CN4CCc5ccccc5C4)c3)cc2n1 (stereo not given) | < 100 | 101 to 1000 | 1000 to 10000
O=C(Cn1ccc2cnc(-c3ccnc(NCC(O)CN4CCc5ccccc5C4)c3)nc21)N1CCOCC1 (stereo not given) | < 100 | < 100 | 101 to 1000
OC(COc1cccc(-c2ncc3ccn(C4CCNCC4)c3n2)c1)CN1CCc2ccccc2C1 (stereo not given) | < 100 | 101 to 1000 | 1000 to 10000
O=C(Cn1ccc2cnc(-c3ccnc(NCC(O)CN4CCc5ccccc5C4)c3)nc21)N1CCCC1 (stereo not given) | < 100 | < 100 | 1000 to 10000
OC(CNc1cc(-c2ncc3ccn(C4CCNCC4)c3n2)ccn1)CN1CCc2ccccc2C1 (stereo not given) | < 100 | < 100 | 101 to 1000
OC(CNc1cc(-c2ccc3ncn(C4CCOCC4)c3c2)ccn1)CN1CCc2ccccc2C1 (stereo not given) | < 100 | 101 to 1000 | 1000 to 10000
CN1CCC(n2cnc3ccc(-c4ccnc(NCC(O)CN5CCc6ccccc6C5)c4)cc32)CC1 (stereo not given) | < 100 | 101 to 1000 | 1000 to 10000
Cn1ccc2cnc(-c3ccnc(NCC(O)CN4CCc5ccccc5C4)c3)nc21 (stereo not given) | < 100 | < 100 | 1000 to 10000
OC(CNc1cc(-c2ncc3ccn(C4CNC4)c3n2)ccn1)CN1CCc2ccccc2C1 (stereo not given) | < 100 | 101 to 1000 | 1000 to 10000
CC(=O)N1CCC(n2cnc3ccc(-c4ccnc(NCC(O)CN5CCc6ccccc6C5)c4)cc32)CC1 (stereo not given) | 101 to 1000 | 101 to 1000 | 1000 to 10000
OC(CNc1cc(-c2ccc3ncn(C4CCNCC4)c3c2)ccn1)CN1CCc2ccccc2C1 (stereo not given) | < 100 | 101 to 1000 | 1000 to 10000
Cn1cc2ccc(-c3cc(NCC(O)CN4CCc5ccccc5C4)ncn3)cc2n1 (stereo not given) | 101 to 1000 | 101 to 1000 | > 20000
CC(=O)N1CCC(n2ccc3cnc(-c4cccc(OCC(O)CN5CCc6ccccc6C5)c4)nc32)CC1 (stereo not given) | 101 to 1000 | 101 to 1000 | 1000 to 10000
OC(COc1cccc(-c2cccc3[nH]cnc23)c1)CN1CCc2ccccc2C1 (stereo not given) | < 100 | 101 to 1000 | 10000 to 40000
OC(COc1cccc(-c2cc(OC(F)(F)F)ccc2Cl)c1)CN1CCc2ccccc2C1 (stereo not given) | 101 to 1000 | 10000 to 40000 | > 20000
Cn1ncc2ccc(-c3ccnc(NCC(O)CN4CCc5ccccc5C4)c3)cc21 (stereo not given) | < 100 | 101 to 1000 | 1000 to 10000
Cn1cnc2ccc(-c3cc(NCC(O)CN4CCc5ccccc5C4)ccn3)cc21 (stereo not given) | 101 to 1000 | 1000 to 10000 | 10000 to 40000
Cn1cnc2ccc(-c3cncc(NCC(O)CN4CCc5ccccc5C4)c3)cc21 (stereo not given) | < 100 | < 100 | 1000 to 10000
